Data taken from patent publication US20220257552A1, “METHODS OF PRESCREENING AND TREATING BREAST CANCERS WITH SELECTIVE ANDROGEN RECEPTOR MODULATORS” (priority 2021, published 2022).
Where “and” joins values, the source holds several entries; their conditions need not be identical. Equal entries are not always repeated.

What was measured:
[1] = system: ER-positive metastatic breast cancer; experiment: Phase 2 trial G200801, 9 mg daily, ER-positive metastatic breast cancer; type: in vivo, human
Text: The goal of this study was to determine the importance of the AR status as a therapeutic target in women with ER-positive metastatic breast cancer (MBC) that had previously responded to hormone therapy. The treatment was continued until disease progression (PD).
CBR will be correlated with AR status of metastatic tumor biopsy.
Female subjects with ER-positive metastatic breast cancer who have previously been treated with up to 3 prior hormonal therapies for the treatment of breast cancer. Subjects must have been treated with and responded to previous adjuvant therapy for ≥3 years or hormonal therapy for metastatic disease for ≥6 months prior to progression. Details of subject selection criteria are presented below:
The primary efficacy analysis was the clinical benefit in subjects with AR-positive breast cancer at 6 months as measured by a modified Response Evaluation Criteria in Solid Tumors (RECIST 1.1) classification. Key secondary endpoints of clinical benefit in all subjects and AR-negative subjects, as well as objective response rate, progression free survival, time to progression, duration of response, incidence of SREs, and time to first SRE in subsets based on AR status (i.e., all subjects, AR-positive subjects, and AR-negative subjects) was also assessed. Effects on CA 27-29, PSA, bone turnover markers, QOL, and libido were assessed as tertiary endpoints.
Clinical benefit in a subject is defined as a complete response [CR], a partial response [PR] or stable disease [SD] as measured by modified RECIST 1.1, which is described in detail below. (Eisenhauer E A et al. New response evaluation criteria in solid tumors: revised RECIST guideline (version 1.1). European Journal of Cancer 45:228-247, 2009).
For subjects with non-measurable (non-target) disease only at baseline, SD was defined as those with non-CR/non-PD combined response. The primary endpoint of the study was to assess the proportion of subjects with clinical benefit (PCB) at 6 months (CR+PR+SD) in subjects with AR-positive breast cancer.

[2] = system: HCI-13 tumor fragments; experiment: HCI-13 ex vivo sponge culture, real time PCR; type: cell-based; details: 3 days
Procedure: HCI-13 tumors grown in female mice were allowed to reach 500-1000 mm^3 before the animals were sacrificed and the tumors were excised to be used for sponge culture. Patient specimens frozen in liquid nitrogen in freezing medium were used for sponge culture. […] Tumors were sliced into small pieces (˜1 mm^3) and incubated on pre-soaked gelatin sponges (5 fragments/sponge) in 12 well plates containing 1.5 mL medium (MEM+10% FBS+2 mM L-glutamine+10 μg/mL insulin+10 μg/mL hydrocortisone+penicillin:streptomycin). The cultures were performed in triplicates for HCI-13 and singly for patient specimens. Pooled samples (n=5/sponge) from each sponge constituted one sample. Tissues were harvested after 3 days of treatment, RNA extracted, and expression of various genes measured. Although the same procedure was adopted for specimens obtained from breast cancer patients, the specimens were cultured singly (n=5/sponge=one sample) and not in triplicates as performed for HCI-13.

[3] = system: MCF7 palboR cells; experiment: Proliferation of palbociclib resistant MCF-7 cells; type: cell-based; details: Formula IX 100 nM, Palb 125 nM
Text: Data were presented as mean values±s.e.m. […] Data represented the mean±s.e.m. of four replicate cell culture wells per condition. […] P values are indicated by gray asterisks, where ****P<0.0001 for all highlighted comparisons.
Tissue samples from an ER-positive, PR-negative, and HER2-negative (ER^+, PR^−, HER2^−) patient that progressed on (i.e., was resistant to) palbociclib were implanted into animal (NSG mice) models and grown as a patient-derived xenograft (PDX). […] This human tumor model also had amplification of the cyclin D1 (CCND1^Amp) gene which has been implicated as a driver of therapeutic resistance to CDKi. […] This is also observed in other models tested in vitro including a palbociclib resistant MCF-7 (MCF7 palbo^R) line (FIG. 44B).

[4] = target: AR-LBD (Homo sapiens, UniProt P10275); experiment: Competitive radioligand binding with [3H]MIB; details: DHT = 1.0
Chain of AR-LBD (P10275 669-900 limits assumed): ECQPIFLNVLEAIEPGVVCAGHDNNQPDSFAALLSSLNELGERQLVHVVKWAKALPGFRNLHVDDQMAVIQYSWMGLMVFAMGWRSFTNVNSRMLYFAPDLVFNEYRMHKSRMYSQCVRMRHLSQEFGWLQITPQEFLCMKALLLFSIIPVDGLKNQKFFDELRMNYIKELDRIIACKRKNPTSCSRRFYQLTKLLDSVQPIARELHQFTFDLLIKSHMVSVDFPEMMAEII

`C[C@](O)(COc1ccc(C#N)cc1)C(=O)Nc1ccc(C#N)c(C(F)(F)F)c1` [Formula IX, (S)—N-(4-Cyano-3-(trifluoromethyl)phenyl)-3-(4-cyanophenoxy)-2-hydroxy-2-methylpropanamide] was tested, and the “AR-positive patients with clinical benefit at 6 months (primary endpoint)” value ([1]; 9 mg daily) was 6/17, the “CR or PR” value ([1]; 9 mg daily) was “no CR or PR has been observed” and the “median duration of SD as best response” value ([1]; 9 mg daily) was 212 days. The “patients with PSA increase” value ([1]; 9 mg daily) was 20 of the 22, the tolerability ([1]; 9 mg daily) was “well-tolerated” and the “subjects with clinical benefit (SD) at 6 months” value ([1]; 9 mg once daily, all subjects) was “Seven out of twenty-two”. The tolerability ([1]; 9 mg, no virilization, hematocrit increase or liver toxicity) was “well tolerated”, the A-fib ([1]; AE count, 9 mg daily) was 1 and the anxiety/emotional changes ([1]; AE count, 9 mg daily) was 5. It also gave an arthralgia ([1]; AE count, 9 mg daily) of 6, a bloating ([1]; AE count, 9 mg daily) of 2 and a bruising ([1]; AE count, 9 mg daily) of 1. It also gave a cellulitis ([1]; AE count, 9 mg daily) of 1, a chills ([1]; AE count, 9 mg daily) of 1 and a constipation ([1]; AE count, 9 mg daily) of 2. It also gave a cough ([1]; AE count, 9 mg daily) of 1, a dehydration ([1]; AE count, 9 mg daily) of 1 and a diarrhea ([1]; AE count, 9 mg daily) of 3. It also gave a dizziness ([1]; AE count, 9 mg daily) of 2, a dysgeusia ([1]; AE count, 9 mg daily) of 1 and a dyspepsia ([1]; AE count, 9 mg daily) of 1. It also gave a dyspnea ([1]; AE count, 9 mg daily) of 3, an edema ([1]; AE count, 9 mg daily) of 2 and a fatigue ([1]; AE count, 9 mg daily) of 14. For the same compound, the fever ([1]; AE count, 9 mg daily) was 1, the flatulence ([1]; AE count, 9 mg daily) was 1 and the glaucoma ([1]; AE count, 9 mg daily) was 1. For the same compound, the headache ([1]; AE count, 9 mg daily) was 4, the “hot flash night sweats” value ([1]; AE count, 9 mg daily) was 7 and the hypertension ([1]; AE count, 9 mg daily) was 2. It also gave an infection ([1]; AE count, 9 mg daily) of 1, an insomnia ([1]; AE count, 9 mg daily) of 2 and a myalgia ([1]; AE count, 9 mg daily) of 5. It also gave a nail discoloration ([1]; AE count, 9 mg daily) of 1, a nausea ([1]; AE count, 9 mg daily) of 11 and a pain ([1]; AE count, 9 mg daily) of 22. For the same compound, the paresthesia ([1]; AE count, 9 mg daily) was 1, the pleural effusion ([1]; AE count, 9 mg daily) was 1 and the polyuria ([1]; AE count, 9 mg daily) was 1. For the same compound, the post menopausal bleeding ([1]; AE count, 9 mg daily) was 3, the stiffness ([1]; AE count, 9 mg daily) was 1 and the tendonitis ([1]; AE count, 9 mg daily) was 1. For the same compound, the vision changes ([1]; AE count, 9 mg daily) was 3, the vomiting ([1]; AE count, 9 mg daily) was 2 and the weight gain ([1]; AE count, 9 mg daily) was 2. The weight loss ([1]; AE count, 9 mg daily) was 2, the “subjects with CB as best response” value ([1]; all subjects (9/22)) was 41% and the “Current Disposition” value ([1]; individual patients) was “D/C (2×) and Deceased (4×)”. The “Days on Study” value ([1]; individual patients) was 255 Days and 105 Days and 7 Days and 18 Days and 158 Days and 308 Days and 52 Days and 63 Days and 230 Days and 84 Days (3×) and 252 Days and 28 Days and 239 Days and 86 Days and 202 Days and 190 Days and 99 Days and 137 Days and 100 Days and 91 Days, the “Day 84 RECIST” value ([1]; individual patients, 9 mg daily) was “D/C SAE and PD SAE and D/C” and the tumor regression ([1]; one subject with SD) was 27%. The “inhibition of ER-induced pS2 and PR gene expression” value ([2]; 10 nM DHT, 1 μM Formula IX, 100 nM fulvestrant) was “effective”, the “AR-target gene FKBP5 expression” value [2] was “induced” and the MKI67 expression [2] was “inhibited”. For the same compound, the anti-proliferative activity [3] was “modest activity”.

`C[C@](O)(COc1ccc(C#N)cc1)C(=O)Nc1ccc(C#N)c(Cl)c1` [Formula VIII, (S)—N-(3-chloro-4-cyanophenyl)-3-(4-cyanophenoxy)-2-hydroxy-2-methylpropanamide] was tested, and the “relative binding affinities (RBAs) for AR” value [4] was 0.314.
